Assay results reported in ChEMBL document CHEMBL1201862, “PubChem BioAssay data set” (2004).
The source made the active and inactive calls.

Columns and labels:
HeLa = test: ATP-based viability loss in HeLa cells – cell-based, CellTiter-Glo luminescence, cherry-pick samples, cytotoxicity control for MITF activator project, dose response (AID 540259); format: functional; conditions: Homo sapiens
[1] = target: Beta-2 adrenergic receptor (Homo sapiens, UniProt P07550); test: ADRB2 activation measured by internalization – cell-based, FAP fluorogen, flow cytometry, cherry pick 1, dose response (AID 588763); format: functional
Chain of Beta-2 adrenergic receptor (P07550 whole entry): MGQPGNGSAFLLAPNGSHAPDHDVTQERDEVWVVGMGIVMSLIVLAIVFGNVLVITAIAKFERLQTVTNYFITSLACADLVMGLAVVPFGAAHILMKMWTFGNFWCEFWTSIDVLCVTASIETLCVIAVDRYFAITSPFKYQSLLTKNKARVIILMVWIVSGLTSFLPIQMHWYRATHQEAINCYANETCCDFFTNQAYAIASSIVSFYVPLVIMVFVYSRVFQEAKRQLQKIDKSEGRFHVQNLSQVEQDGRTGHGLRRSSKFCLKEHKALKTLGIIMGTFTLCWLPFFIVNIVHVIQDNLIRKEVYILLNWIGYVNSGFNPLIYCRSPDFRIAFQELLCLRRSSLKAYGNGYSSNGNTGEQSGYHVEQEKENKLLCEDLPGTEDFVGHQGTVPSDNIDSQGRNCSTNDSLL

cells = format: functional
[2] = target: Glucose-6-phosphate 1-dehydrogenase (Homo sapiens, UniProt P11413); test: inhibition of Homo sapiens G6PD, dose series – biochemical, fluorescence, selectivity assay for P. falciparum G6PD inhibitor project, dose response (AID 504792); format: functional
Chain of Glucose-6-phosphate 1-dehydrogenase (P11413 whole entry): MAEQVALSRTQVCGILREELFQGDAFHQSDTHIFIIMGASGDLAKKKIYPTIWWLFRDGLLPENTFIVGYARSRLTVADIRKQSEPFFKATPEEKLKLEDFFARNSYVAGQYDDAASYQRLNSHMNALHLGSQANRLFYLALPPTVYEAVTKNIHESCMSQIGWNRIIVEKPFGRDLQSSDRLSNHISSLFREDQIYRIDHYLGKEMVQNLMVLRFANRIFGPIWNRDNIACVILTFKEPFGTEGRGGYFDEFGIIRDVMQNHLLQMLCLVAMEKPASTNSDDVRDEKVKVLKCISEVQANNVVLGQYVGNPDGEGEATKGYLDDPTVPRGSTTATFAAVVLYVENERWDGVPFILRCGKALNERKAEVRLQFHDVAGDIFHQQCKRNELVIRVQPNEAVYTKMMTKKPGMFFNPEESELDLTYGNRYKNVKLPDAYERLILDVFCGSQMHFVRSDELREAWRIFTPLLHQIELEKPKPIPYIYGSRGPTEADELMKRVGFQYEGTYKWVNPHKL

Vero [3] = test: cells; format: functional, cell-based; conditions: Chlorocebus sabaeus
[4] = target: T1, 1-acylglycerol-3-phosphate O-acyltransferase ABHD5/Perilipin-5 (Homo sapiens, UniProt Q00G26+Q8WTS1); test: Luminescence-based biochemical high throughput dose response assay for inhibitors of the interaction of the lipase co-activator protein, abhydrolase domain containing 5 (ABHD5) with perilipin-5 (MLDP; PLIN5) (2K validation set). [Related pubchem assays (depositor defined):AID493035, AID493241]
T1 sequence (Q00G26 whole entry): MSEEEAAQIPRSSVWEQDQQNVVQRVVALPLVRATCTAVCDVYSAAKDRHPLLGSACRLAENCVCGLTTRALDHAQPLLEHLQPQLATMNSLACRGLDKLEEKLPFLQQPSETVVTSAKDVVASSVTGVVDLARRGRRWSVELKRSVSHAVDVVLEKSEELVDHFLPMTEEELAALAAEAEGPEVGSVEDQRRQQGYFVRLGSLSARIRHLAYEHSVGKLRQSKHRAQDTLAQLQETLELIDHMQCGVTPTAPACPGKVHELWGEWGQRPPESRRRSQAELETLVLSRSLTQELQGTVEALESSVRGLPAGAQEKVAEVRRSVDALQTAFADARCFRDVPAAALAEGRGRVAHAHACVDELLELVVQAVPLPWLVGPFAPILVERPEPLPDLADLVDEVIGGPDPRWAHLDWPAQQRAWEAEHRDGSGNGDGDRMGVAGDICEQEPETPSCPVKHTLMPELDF
T1 sequence (Q8WTS1 whole entry): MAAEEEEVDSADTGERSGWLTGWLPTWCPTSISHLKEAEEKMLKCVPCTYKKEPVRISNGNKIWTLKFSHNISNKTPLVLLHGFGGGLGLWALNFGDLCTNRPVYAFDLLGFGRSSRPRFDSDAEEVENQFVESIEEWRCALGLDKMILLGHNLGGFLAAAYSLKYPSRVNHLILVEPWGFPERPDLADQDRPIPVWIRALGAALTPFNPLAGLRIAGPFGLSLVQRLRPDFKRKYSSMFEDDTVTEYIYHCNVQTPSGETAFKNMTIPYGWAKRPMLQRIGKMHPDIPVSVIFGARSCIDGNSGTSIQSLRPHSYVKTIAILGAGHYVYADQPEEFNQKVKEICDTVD

[5] = Luminescence Cell-Based Dose Retest to Confirm Inhibitors of Cancer Stem Cells. [Related pubchem assays (depositor defined):AID2717, AID2721]; format: functional; conditions: Homo sapiens
Protein skinhead-1 = target: T2, Protein skinhead-1 (Caenorhabditis elegans, UniProt P34707); format: functional
T2 sequence (P34707 whole entry): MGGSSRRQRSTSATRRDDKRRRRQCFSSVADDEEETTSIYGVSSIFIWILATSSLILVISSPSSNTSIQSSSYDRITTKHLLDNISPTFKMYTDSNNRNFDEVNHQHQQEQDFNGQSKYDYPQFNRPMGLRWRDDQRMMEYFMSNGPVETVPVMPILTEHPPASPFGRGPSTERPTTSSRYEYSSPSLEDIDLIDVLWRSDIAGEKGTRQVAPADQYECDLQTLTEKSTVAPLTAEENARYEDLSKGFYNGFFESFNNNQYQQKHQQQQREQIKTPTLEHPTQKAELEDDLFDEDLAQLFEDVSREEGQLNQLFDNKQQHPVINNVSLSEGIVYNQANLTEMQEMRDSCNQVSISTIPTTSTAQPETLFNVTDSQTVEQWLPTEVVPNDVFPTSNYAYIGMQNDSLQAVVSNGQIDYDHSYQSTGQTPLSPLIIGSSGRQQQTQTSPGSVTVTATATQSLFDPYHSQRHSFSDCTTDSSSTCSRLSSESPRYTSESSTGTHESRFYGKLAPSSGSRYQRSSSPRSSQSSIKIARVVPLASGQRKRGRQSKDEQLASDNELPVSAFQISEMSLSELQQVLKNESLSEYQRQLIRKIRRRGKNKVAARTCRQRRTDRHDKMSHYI

[6] = viability of HCT116 lacking mutant beta-catenin – cell-based, human colon tumor, dose response (AID 1045); format: functional;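 note: HCT116 colon tumor cells with beta catenin knocked out; cells exposed to compound for 60 hours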
Perilipin-1/ABHD5 = target: T3, Perilipin-1/ABHD5 (Homo sapiens, UniProt O60240+Q8WTS1); test: Luminescence-based biochemical high throughput dose response assay for inhibitors of the interaction of the lipase co-activator protein, abhydrolase domain containing 5 (ABHD5) with perilipin-1 (PLIN1) (2K validation set). [Related pubchem assays (depositor defined):AID493027, AID493057]
T3 sequence (Q8WTS1 whole entry): T1 sequence (Q8WTS1 whole entry)
T3 sequence (O60240 whole entry): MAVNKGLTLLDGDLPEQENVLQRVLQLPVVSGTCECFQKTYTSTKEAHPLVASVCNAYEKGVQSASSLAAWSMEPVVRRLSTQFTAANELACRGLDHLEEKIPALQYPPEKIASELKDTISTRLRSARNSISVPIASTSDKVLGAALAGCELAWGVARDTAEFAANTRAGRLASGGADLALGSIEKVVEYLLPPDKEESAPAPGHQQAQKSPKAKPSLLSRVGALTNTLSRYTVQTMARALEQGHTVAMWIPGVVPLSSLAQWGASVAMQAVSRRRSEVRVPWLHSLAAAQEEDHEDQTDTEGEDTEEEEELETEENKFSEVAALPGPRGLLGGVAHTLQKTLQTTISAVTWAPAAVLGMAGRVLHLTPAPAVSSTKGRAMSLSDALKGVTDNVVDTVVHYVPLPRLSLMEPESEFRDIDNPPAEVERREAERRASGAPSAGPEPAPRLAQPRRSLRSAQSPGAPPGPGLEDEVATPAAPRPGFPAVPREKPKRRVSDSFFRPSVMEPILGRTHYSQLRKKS

Vero [7] = test: cells; format: functional; conditions: Chlorocebus sabaeus
[8] = viability of PTEN-deleted HCT116 cells – cell-based, HCT116 PTEN knockout, dose response (AID 1047); format: functional;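 note: HCT116 colon tumor cells with PTEN knocked out; cells exposed to compound for 60 hours before readout; potency for loss of cell viability measured by luminescence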
[9] = DRD fibroblast viability loss – cell-based, non-viral oncogenic, luminescence, dose response (AID 1934); format: functional; conditions: Homo sapiens
BJ [10] = test: cells; format: functional, cell-based; conditions: Homo sapiens
[11] = luciferase reporter signal suppression in cells – H4 neuroglioma cells, luminescence, dose response (AID 1990); format: functional, cell-based
BJ [12] = test: BJ-TERT fibroblast viability loss – cell-based, RAS-independent, luminescence, dose response (AID 1933); format: functional; conditions: Homo sapiens
[13] = Luminescence Cell-Based Dose Response HTS to Identify Inhibitors of 5'UTR Stem-Loop Driven Prion Protein mRNA Translation in H4 Neuroglioblastoma Cells. [Related pubchem assays: 1827 (Project Summary), 1813 (Primary HTS)]; format: functional
BJ [14] = test: BJ-TERT-LT-ST fibroblast viability loss – cell-based, RAS-independent, luminescence, dose response (AID 1935); format: functional; conditions: Homo sapiens;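 note: BJ fibroblasts immortalized with TERT plus LT and ST oncogenes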

In the case of `O=C(NCCC1=CCCCC1)c1ccc(-n2cncn2)cc1`, the AC50 (HeLa) is reported as > 350 µM (inactive).

With `COc1cccc(OCc2nnc(-c3cccs3)o2)c1` the EC50 [1] was 10.7 µM (inactive) and the IC50 (cells) was 5.57 µM (active).

With `CCc1nnc(NC(=O)c2ccc(Cl)nc2)s1` the IC50 [2] was > 80 µM (inactive).

For `O=C(/C=C/c1ccccc1)/C=C/c1ccccc1`, the IC50 (Vero [3]) was > 25 µM (active), the IC50 [4] was 1.48 µM (active) and the AC50 [5] was 1.42 µM (active). For the same molecule, the IC50 (Protein skinhead-1) was 11.6 µM (active), the EC50 [6] was 0.953 µM (active) and the IC50 (Perilipin-1/ABHD5) was 1.52 µM (active). The CC50 (Vero [7]) was 19.1 µM (active) and the EC50 [8] was 1.22 µM (active).

For `Cc1cc(C)c2c(N)c(-c3nnc(SCc4ccc(Cl)cc4)n3C)sc2n1`, the EC50 [1] was 0.252 µM (active).

With `CC(C)c1ccc(NC(=O)[C@H](Cc2c[nH]c3ccccc23)NC(=O)[C@@H]2Cc3ccccc3CN2)cc1` the IC50 (Vero [3]) was 5.06 µM (active), the EC50 [9] was 119 µM (active) and the EC50 (BJ [10]) was 70.9 µM (active). The EC50 [11] was > 120 µM (not active), the EC50 (BJ [12]) was > 150 µM (not active) and the CC50 (Vero [7]) was 23.5 µM (active). The EC50 [13] was 20.1 µM (active) and the EC50 (BJ [14]) was > 150 µM (not active).
